# Measurements reported in US20210163964A1, “ENGINEERED STREPTOMYCES ALBUS STRAINS” (University of Florida Research Foundation, Incorporated, priority 2018, published 2021).
# Tested on: S. albus J1074 and the Δpfk-derivative strain
# Experiment: Diamide sensitivity disc assay
# Format: cell-based, Streptomyces albus J1074
# Conditions: 100 mM diamide disc; ΔpfkSA mutant relative to wild type S. albus J1074; R5A plates, 30° C., 24 h
# Experimental: Lawns of S. albus J1074 wild-type and Δpfk mutant were generated by overlaying R5A plates (sucrose 100 g/l, K2SO4 0.25 g/l, MgCl2 10.12 g/l, glucose 10 g/l, Casamino acids 0.1 g/l, yeast extract 5 g/l, MOPS 21 g/l, NAOH 2 g/l, R2YE trace elements 2 ml/l, 15 g/L agar) with 3 ml soft Nutrient Agar containing 10^7 fresh spores. Immediately after plating, paper discs soaked in 100 mM diamide were added and plates were incubated at 30° C. for 24 h.
structure (smiles),measurement,value
CN(C)C(=O)/N=N/C(=O)N(C)C [diamide],sensitivity to diamide (halo around disc),less sensitive
